# Assay results taken from patent publication US7767712B2, “Storage-stable aqueous composition comprising a magnesium compound and L-carnitine” (Verla-Pharm Arzneimittelfabrik Apotheker H.J.v. Ehrlich …, priority 2006, dated 2010).
# Assay: Solubility of L-carnitine at 20° C.
# Type: physicochemical
# Conditions: in 100 g of solution
# From the text: This applies, furthermore, without taking into account the amount of water which is required for dissolving magnesium aspartate hydrochloride.
compound,measurement,value
"C[N+](C)(C)CC(O)CC(=O)[O-] [L-carnitine, 3-hydroxy-4-(trimethylammonio)butyro-betaine]",amount of L-carnitine that can be dissolved in 100 g of an aqueous solution which contains 51% by weight magnesium aspartate hydrochloride,up to 150 g
